In PubChem BioAssay (NCI):
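In this assay, cells in 96-well plates receive the compound at five concentrations for 48 hours. Endpoints are linearly interpolated between the surrounding concentrations. GI50 is the concentration that inhibits growth by half. TGI: concentration producing complete growth inhibition.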

What was measured:
Test in all cases: growth of human tumour cells (NCI), 48 h
K-562 leukemia = test system: K-562 leukemia
LOX IMVI melanoma = test system: LOX IMVI melanoma
MDA-MB-435 = test system: MDA-MB-435
NCI/ADR-RES ovarian = test system: NCI/ADR-RES ovarian
HL-60(TB) leukemia = test system: HL-60(TB) leukemia
MDA-MB-231 breast = test system: MDA-MB-231 breast
SF-268 CNS = test system: SF-268 CNS
KM12 colon = test system: KM12 colon
NCI-H226 lung = test system: NCI-H226 lung
A549 NSCLC = test system: A549 NSCLC
SW-620 colon = test system: SW-620 colon
TK-10 renal = test system: TK-10 renal
UO-31 renal = test system: UO-31 renal
MOLT-4 leukemia = test system: MOLT-4 leukemia
EKVX NSCLC = test system: EKVX NSCLC
OVCAR-4 ovarian = test system: OVCAR-4 ovarian
SNB-19 CNS = test system: SNB-19 CNS
SN12C renal = test system: SN12C renal
786-0 renal = test system: 786-0 renal
NCI-H460 lung = test system: NCI-H460 lung
BT-549 breast = test system: BT-549 breast
HOP-92 NSCLC = test system: HOP-92 NSCLC
HCT-15 colon = test system: HCT-15 colon
CCRF-CEM leukemia = test system: CCRF-CEM leukemia
HOP-62 NSCLC = test system: HOP-62 NSCLC
M14 melanoma = test system: M14 melanoma
MALME-3M melanoma = test system: MALME-3M melanoma
RPMI-8226 leukemia = test system: RPMI-8226 leukemia
COLO 205 colon = test system: COLO 205 colon
SK-MEL-28 melanoma = test system: SK-MEL-28 melanoma
RXF 393 renal = test system: RXF 393 renal
OVCAR-8 ovarian = test system: OVCAR-8 ovarian
SF-295 CNS = test system: SF-295 CNS
UACC-62 melanoma = test system: UACC-62 melanoma
HS 578T breast = test system: HS 578T breast
ACHN renal = test system: ACHN renal
SK-MEL-5 melanoma = test system: SK-MEL-5 melanoma
DU-145 prostate = test system: DU-145 prostate
OVCAR-3 ovarian = test system: OVCAR-3 ovarian
SR leukemia = test system: SR leukemia
NCI-H23 lung = test system: NCI-H23 lung
CAKI-1 renal = test system: CAKI-1 renal
IGROV1 ovarian = test system: IGROV1 ovarian
PC-3 prostate = test system: PC-3 prostate
HCT-116 colon = test system: HCT-116 colon
SK-MEL-2 melanoma = test system: SK-MEL-2 melanoma
SF-539 CNS = test system: SF-539 CNS
MCF7 breast = test system: MCF7 breast
U251 CNS = test system: U251 CNS
T-47D breast = test system: T-47D breast
NCI-H522 lung = test system: NCI-H522 lung
SK-OV-3 ovarian = test system: SK-OV-3 ovarian
OVCAR-5 ovarian = test system: OVCAR-5 ovarian
A498 renal = test system: A498 renal
HCC-2998 colon = test system: HCC-2998 colon
HT29 colon = test system: HT29 colon
UACC-257 melanoma = test system: UACC-257 melanoma
MDA-MB-468 breast = test system: MDA-MB-468 breast

O=C(NNc1nc2cc(F)ccc2n2c(CN3CCCCC3)ccc12)c1cnccn1
GI50 (K-562 leukemia): 1220 nM | TGI (K-562 leukemia): 4580 nM | GI50 (LOX IMVI melanoma): 682 nM | TGI (LOX IMVI melanoma): 2880 nM | GI50 (MDA-MB-435): 2740 nM | TGI (MDA-MB-435): 13900 nM | GI50 (NCI/ADR-RES ovarian): 514 nM | TGI (NCI/ADR-RES ovarian): 2290 nM | GI50 (HL-60(TB) leukemia): 340 nM | TGI (HL-60(TB) leukemia): 1640 nM | GI50 (MDA-MB-231 breast): 1260 nM | TGI (MDA-MB-231 breast): 10400 nM | GI50 (SF-268 CNS): 1330 nM | TGI (SF-268 CNS): 11800 nM | GI50 (KM12 colon): 1170 nM | TGI (KM12 colon): 12400 nM | GI50 (NCI-H226 lung): 1640 nM | TGI (NCI-H226 lung): 6800 nM | GI50 (A549 NSCLC): 1220 nM | TGI (A549 NSCLC): 11800 nM | GI50 (SW-620 colon): 1070 nM | TGI (SW-620 colon): 10700 nM | GI50 (TK-10 renal): 969 nM | TGI (TK-10 renal): 10200 nM | GI50 (UO-31 renal): 330 nM | TGI (UO-31 renal): 4910 nM | GI50 (MOLT-4 leukemia): 388 nM | TGI (MOLT-4 leukemia): 2320 nM | GI50 (EKVX NSCLC): 525 nM | TGI (EKVX NSCLC): 3760 nM | GI50 (OVCAR-4 ovarian): 842 nM | TGI (OVCAR-4 ovarian): 4550 nM | GI50 (SNB-19 CNS): 1540 nM | TGI (SNB-19 CNS): 12000 nM | GI50 (SN12C renal): 1290 nM | TGI (SN12C renal): 8500 nM | GI50 (786-0 renal): 1320 nM | TGI (786-0 renal): 4360 nM | GI50 (NCI-H460 lung): 392 nM | TGI (NCI-H460 lung): 3150 nM | GI50 (BT-549 breast): 1570 nM | TGI (BT-549 breast): 12700 nM | GI50 (HOP-92 NSCLC): 1190 nM | TGI (HOP-92 NSCLC): 5370 nM | GI50 (HCT-15 colon): 190 nM | TGI (HCT-15 colon): 12800 nM | GI50 (CCRF-CEM leukemia): 462 nM | TGI (CCRF-CEM leukemia): 3170 nM | GI50 (HOP-62 NSCLC): 1140 nM | TGI (HOP-62 NSCLC): 7910 nM | GI50 (M14 melanoma): 1490 nM | TGI (M14 melanoma): 5540 nM | GI50 (MALME-3M melanoma): 2310 nM | TGI (MALME-3M melanoma): 8940 nM | GI50 (RPMI-8226 leukemia): 953 nM | TGI (RPMI-8226 leukemia): 12100 nM | GI50 (COLO 205 colon): 1160 nM | TGI (COLO 205 colon): 9740 nM | GI50 (SK-MEL-28 melanoma): 2700 nM | TGI (SK-MEL-28 melanoma): 13300 nM | GI50 (RXF 393 renal): 1690 nM | TGI (RXF 393 renal): 5620 nM | GI50 (OVCAR-8 ovarian): 944 nM | TGI (OVCAR-8 ovarian): 5270 nM | GI50 (SF-295 CNS): 599 nM | TGI (SF-295 CNS): 6270 nM | GI50 (UACC-62 melanoma): 1280 nM | TGI (UACC-62 melanoma): 3240 nM | GI50 (HS 578T breast): 2620 nM | TGI (HS 578T breast): 18000 nM | GI50 (ACHN renal): 763 nM | TGI (ACHN renal): 7910 nM | GI50 (SK-MEL-5 melanoma): 1810 nM | TGI (SK-MEL-5 melanoma): 8100 nM | GI50 (DU-145 prostate): 1410 nM | TGI (DU-145 prostate): 11800 nM | GI50 (OVCAR-3 ovarian): 2040 nM | TGI (OVCAR-3 ovarian): 16000 nM | GI50 (SR leukemia): 288 nM | TGI (SR leukemia): 2210 nM | GI50 (NCI-H23 lung): 1390 nM | TGI (NCI-H23 lung): 3430 nM | GI50 (CAKI-1 renal): 918 nM | TGI (CAKI-1 renal): 11000 nM | GI50 (IGROV1 ovarian): 894 nM | TGI (IGROV1 ovarian): 5060 nM | GI50 (PC-3 prostate): 1220 nM | TGI (PC-3 prostate): 6720 nM | GI50 (HCT-116 colon): 701 nM | TGI (HCT-116 colon): 12500 nM | GI50 (SK-MEL-2 melanoma): 2130 nM | TGI (SK-MEL-2 melanoma): 12400 nM | GI50 (SF-539 CNS): 1140 nM | TGI (SF-539 CNS): 6940 nM | GI50 (MCF7 breast): 1580 nM | TGI (MCF7 breast): 10300 nM | GI50 (U251 CNS): 967 nM | TGI (U251 CNS): 11700 nM | GI50 (T-47D breast): 2070 nM | TGI (T-47D breast): 10200 nM | GI50 (NCI-H522 lung): 1360 nM | TGI (NCI-H522 lung): 5100 nM | GI50 (SK-OV-3 ovarian): 1170 nM | TGI (SK-OV-3 ovarian): 10900 nM | GI50 (OVCAR-5 ovarian): 1350 nM | TGI (OVCAR-5 ovarian): 7230 nM | GI50 (A498 renal): 13900 nM | TGI (A498 renal): 26900 nM | GI50 (HCC-2998 colon): 1140 nM | TGI (HCC-2998 colon): 11600 nM | GI50 (HT29 colon): 474 nM | TGI (HT29 colon): 13300 nM | GI50 (UACC-257 melanoma): 2730 nM | TGI (UACC-257 melanoma): 9770 nM | GI50 (MDA-MB-468 breast): 1200 nM | TGI (MDA-MB-468 breast): 3100 nM
